Values belong to the compound of their own block, whether it stands above or below them. Calls of active or inactive are those of the source. The rule behind the calls is not given here.
Legend:
Cathepsin D = Cathepsin D (Homo sapiens, UniProt P07339); assay: Inhibition of CathD (unknown origin)
Renin = molecular target: T1, Renin (Homo sapiens, UniProt P00797); assay: Inhibition of renin (unknown origin)
T1 sequence (P00797 whole entry): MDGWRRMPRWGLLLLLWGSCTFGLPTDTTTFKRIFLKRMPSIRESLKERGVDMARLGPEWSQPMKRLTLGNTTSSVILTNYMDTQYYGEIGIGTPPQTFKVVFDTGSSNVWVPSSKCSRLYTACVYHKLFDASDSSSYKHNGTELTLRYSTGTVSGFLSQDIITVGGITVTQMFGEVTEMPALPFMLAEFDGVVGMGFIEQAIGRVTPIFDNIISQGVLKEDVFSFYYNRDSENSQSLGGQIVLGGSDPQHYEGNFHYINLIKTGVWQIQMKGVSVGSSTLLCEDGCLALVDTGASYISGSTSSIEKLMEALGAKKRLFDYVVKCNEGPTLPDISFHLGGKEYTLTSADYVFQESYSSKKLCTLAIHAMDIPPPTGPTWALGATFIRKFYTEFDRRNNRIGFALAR

Beta-secretase 1 = Beta-secretase 1 (Homo sapiens, UniProt P56817); assay: Inhibition of BACE1 (unknown origin)
[1] = AUC (0 to 6 hrs) in rat at 10 mg/kg, po; assay type: ADME, organism-based; set-up: time < 6 hr, dose 10 mg/kg, route oral; conditions: plasma
hERG (KCNH2) = hERG (KCNH2) (Homo sapiens, UniProt Q12809); assay: Inhibition of human ERG at 10 uM
[2] = molecular target: Sodium-dependent dopamine transporter (Homo sapiens) (UniProt Q01959); assay: Inhibition of human dopamine transporter at 10 uM
Homo sapiens [3] = species on record: Homo sapiens; assay: Clearance in human assessed per million cells; assay type: ADME, cell-based
Cathepsin E = molecular target: T2, Cathepsin E (Homo sapiens, UniProt P14091); assay: Inhibition of CathE (unknown origin)
T2 sequence (P14091 whole entry): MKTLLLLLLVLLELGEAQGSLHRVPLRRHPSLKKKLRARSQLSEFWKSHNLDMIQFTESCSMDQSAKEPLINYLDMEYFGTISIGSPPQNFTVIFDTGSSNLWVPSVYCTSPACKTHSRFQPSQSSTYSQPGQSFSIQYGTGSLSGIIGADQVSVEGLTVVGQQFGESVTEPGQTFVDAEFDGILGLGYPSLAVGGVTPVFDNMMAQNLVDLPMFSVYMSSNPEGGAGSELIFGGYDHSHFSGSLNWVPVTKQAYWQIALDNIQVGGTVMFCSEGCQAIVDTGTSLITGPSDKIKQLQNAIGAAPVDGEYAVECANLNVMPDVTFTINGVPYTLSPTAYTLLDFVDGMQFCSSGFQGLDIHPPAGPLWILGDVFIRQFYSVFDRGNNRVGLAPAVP

[4] = Inhibition of CYP (unknown origin); assay type: ADME; conditions: human
[5] = Oral bioavailability in dog at 3 mg/kg; assay type: ADME, organism-based, Canis lupus familiaris; conditions: in vivo
Rattus norvegicus [6] = assay: Antihypertensive activity in rat/human renin double transgenic rat model assessed as reduction in mean arterial pressure at 10 mg/kg, po after 17 hrs; assay type: functional, organism-based; set-up: dose 10 mg/kg; conditions: Artery
Homo sapiens [7] = species on record: Homo sapiens; assay: Inhibition of Na+ channel site 2 (unknown origin) at 10 uM
[8] = Inhibition of pepsin (unknown origin); set-up: species or system Homo sapiens
Beta-secretase 2 = molecular target: T3, Beta-secretase 2 (Homo sapiens, UniProt Q9Y5Z0); assay: Inhibition of BACE2 (unknown origin)
T3 sequence (Q9Y5Z0 whole entry): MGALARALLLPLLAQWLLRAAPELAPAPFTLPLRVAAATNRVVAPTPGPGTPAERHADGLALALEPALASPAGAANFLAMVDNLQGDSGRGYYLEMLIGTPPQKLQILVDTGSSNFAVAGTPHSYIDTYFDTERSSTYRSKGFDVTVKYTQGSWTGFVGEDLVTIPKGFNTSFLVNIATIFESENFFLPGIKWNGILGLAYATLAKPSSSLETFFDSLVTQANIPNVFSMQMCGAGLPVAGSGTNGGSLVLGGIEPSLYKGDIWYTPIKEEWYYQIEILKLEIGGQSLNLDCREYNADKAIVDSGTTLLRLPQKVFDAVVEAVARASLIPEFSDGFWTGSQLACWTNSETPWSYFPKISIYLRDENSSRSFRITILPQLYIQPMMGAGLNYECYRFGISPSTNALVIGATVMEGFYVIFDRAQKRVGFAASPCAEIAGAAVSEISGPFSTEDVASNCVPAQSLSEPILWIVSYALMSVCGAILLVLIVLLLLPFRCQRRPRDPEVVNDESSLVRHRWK

Rattus norvegicus [9] = assay: Antihypertensive activity in rat/human renin double transgenic rat model assessed as reduction in mean arterial pressure at 10 mg/kg, po after 20 hrs; assay type: functional, organism-based; set-up: dose 10 mg/kg; conditions: Artery
[10] = Protein binding in human plasma; assay type: ADME, cell-free; conditions: read-out: PPB (converted)
[11] = molecular target: D(1A) dopamine receptor (Homo sapiens) (UniProt P21728); assay: Inhibition of human D1 receptor at 10 uM
[12] = molecular target: T4, Nuclear receptor subfamily 1 group I member 2 (Homo sapiens, UniProt O75469); assay: Inhibition of PXR (unknown origin); assay type: ADME
T4 sequence (O75469 whole entry): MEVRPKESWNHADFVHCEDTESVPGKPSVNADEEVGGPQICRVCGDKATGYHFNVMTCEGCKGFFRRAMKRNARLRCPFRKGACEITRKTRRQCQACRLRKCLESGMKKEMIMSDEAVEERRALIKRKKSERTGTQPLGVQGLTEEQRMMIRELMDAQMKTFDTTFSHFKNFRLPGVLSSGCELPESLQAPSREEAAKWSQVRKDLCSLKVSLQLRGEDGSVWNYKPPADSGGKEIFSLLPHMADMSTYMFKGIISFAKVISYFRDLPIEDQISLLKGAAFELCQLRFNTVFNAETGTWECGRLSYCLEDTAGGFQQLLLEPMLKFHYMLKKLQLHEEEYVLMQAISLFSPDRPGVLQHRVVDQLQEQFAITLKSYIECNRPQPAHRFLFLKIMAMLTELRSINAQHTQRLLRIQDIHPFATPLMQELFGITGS

[13] = AUC in cynomolgus monkey at 3 mg/kg, po; assay type: ADME, organism-based, Macaca fascicularis; set-up: dose 3 mg/kg, route oral; conditions: plasma
[14] = AUC in dog at 3 mg/kg, po; assay type: ADME, organism-based, Canis lupus familiaris; set-up: dose 3 mg/kg, route oral; conditions: plasma
[15] = Fraction unbound in rat plasma; assay type: ADME, cell-free
Rattus norvegicus [16] = assay: Antihypertensive activity in rat/human renin double transgenic rat model assessed as maximum reduction in mean arterial pressure at 10 mg/kg, po; assay type: functional, Artery
[17] = Protein binding in rat plasma; assay type: ADME, cell-free; conditions: read-out: PPB (converted)
[18] = molecular target: Voltage-gated inwardly rectifying potassium channel KCNH2 (Homo sapiens, UniProt Q12809); assay: Inhibition of human ERG by voltage clamp method
[19] = Oral bioavailability in cynomolgus monkey at 3 mg/kg; assay type: ADME, organism-based, Macaca fascicularis; conditions: in vivo
[20] = Permeability across human Caco2 cells; assay type: ADME, cell-based; conditions: Caco-2, read-out: permeability
clinical = conditions: human, in vivo, po

Beta-secretase 1, sequence (P56817 whole entry): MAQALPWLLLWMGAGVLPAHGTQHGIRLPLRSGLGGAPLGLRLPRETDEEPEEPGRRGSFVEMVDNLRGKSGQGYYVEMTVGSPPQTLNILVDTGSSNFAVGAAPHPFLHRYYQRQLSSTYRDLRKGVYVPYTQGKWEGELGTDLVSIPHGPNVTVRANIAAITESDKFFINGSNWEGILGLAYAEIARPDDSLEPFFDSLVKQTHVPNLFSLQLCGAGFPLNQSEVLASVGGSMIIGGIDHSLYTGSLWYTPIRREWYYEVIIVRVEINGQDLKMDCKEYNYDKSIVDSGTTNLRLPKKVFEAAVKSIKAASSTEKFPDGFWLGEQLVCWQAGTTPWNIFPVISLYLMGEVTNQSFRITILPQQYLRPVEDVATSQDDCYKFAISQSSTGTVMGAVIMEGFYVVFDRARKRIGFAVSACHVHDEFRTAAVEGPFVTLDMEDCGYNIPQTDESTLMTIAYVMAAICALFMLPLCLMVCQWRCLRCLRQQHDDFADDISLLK
hERG (KCNH2), sequence (Q12809 whole entry): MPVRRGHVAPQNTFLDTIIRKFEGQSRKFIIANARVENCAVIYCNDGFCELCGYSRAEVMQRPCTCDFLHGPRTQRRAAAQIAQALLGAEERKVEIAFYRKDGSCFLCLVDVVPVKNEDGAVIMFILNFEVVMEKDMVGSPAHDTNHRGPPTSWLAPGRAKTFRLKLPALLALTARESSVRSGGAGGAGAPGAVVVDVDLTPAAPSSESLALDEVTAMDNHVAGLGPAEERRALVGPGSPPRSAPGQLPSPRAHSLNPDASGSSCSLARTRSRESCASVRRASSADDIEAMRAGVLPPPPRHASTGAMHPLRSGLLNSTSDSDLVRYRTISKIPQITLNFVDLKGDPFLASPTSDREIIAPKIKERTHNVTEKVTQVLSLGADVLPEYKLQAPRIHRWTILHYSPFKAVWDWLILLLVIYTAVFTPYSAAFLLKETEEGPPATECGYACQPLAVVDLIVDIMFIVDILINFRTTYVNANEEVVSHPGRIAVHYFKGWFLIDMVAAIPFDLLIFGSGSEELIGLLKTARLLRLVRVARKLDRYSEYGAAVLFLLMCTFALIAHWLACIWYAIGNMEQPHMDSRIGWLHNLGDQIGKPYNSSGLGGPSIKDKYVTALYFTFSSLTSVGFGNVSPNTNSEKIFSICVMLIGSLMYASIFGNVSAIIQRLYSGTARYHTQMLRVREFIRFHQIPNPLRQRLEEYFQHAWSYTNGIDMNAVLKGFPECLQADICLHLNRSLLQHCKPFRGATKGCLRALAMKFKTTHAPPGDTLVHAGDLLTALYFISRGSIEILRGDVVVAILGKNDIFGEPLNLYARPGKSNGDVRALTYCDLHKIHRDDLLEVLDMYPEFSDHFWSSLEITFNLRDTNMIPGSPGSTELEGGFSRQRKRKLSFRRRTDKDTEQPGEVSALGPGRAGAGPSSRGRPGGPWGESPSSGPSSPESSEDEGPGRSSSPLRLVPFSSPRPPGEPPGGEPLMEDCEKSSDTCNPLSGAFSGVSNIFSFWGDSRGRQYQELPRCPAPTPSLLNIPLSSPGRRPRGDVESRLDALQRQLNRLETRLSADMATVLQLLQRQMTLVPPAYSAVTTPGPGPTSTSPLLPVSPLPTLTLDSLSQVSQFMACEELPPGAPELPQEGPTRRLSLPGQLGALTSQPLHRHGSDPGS
Cathepsin D, sequence (P07339 65-162 limits assumed): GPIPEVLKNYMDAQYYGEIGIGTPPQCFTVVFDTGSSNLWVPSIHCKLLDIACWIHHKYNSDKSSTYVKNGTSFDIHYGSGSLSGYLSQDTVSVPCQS
Cathepsin D, sequence (P07339 169-412 limits assumed): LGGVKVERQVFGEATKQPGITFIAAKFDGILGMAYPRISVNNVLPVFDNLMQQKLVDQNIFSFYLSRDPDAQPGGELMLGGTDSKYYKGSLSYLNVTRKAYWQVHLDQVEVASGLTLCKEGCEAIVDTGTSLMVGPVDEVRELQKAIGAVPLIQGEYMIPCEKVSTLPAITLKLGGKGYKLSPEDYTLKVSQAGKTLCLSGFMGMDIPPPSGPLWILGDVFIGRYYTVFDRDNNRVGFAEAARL
Voltage-gated inwardly rectifying potassium channel KCNH2, sequence (Q12809 whole entry): as the sequence (Q12809 whole entry) above
Sodium-dependent dopamine transporter (Homo sapiens), sequence (Q01959 whole entry): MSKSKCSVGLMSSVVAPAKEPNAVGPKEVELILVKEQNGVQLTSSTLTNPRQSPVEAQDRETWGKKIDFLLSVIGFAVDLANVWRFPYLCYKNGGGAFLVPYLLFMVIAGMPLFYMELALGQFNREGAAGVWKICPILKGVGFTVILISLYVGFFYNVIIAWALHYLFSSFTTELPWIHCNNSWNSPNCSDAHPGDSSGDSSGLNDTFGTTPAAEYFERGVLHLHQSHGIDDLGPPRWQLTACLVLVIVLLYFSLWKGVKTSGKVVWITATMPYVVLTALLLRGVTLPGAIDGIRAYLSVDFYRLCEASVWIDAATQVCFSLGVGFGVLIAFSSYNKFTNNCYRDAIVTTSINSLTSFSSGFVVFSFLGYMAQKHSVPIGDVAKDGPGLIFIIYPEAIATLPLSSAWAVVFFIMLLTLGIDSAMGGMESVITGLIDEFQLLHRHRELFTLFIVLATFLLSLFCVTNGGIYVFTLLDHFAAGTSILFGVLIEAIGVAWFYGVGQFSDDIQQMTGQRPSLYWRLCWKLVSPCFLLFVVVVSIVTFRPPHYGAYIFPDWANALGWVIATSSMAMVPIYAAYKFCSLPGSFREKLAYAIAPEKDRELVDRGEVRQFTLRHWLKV
D(1A) dopamine receptor (Homo sapiens), sequence (P21728 whole entry): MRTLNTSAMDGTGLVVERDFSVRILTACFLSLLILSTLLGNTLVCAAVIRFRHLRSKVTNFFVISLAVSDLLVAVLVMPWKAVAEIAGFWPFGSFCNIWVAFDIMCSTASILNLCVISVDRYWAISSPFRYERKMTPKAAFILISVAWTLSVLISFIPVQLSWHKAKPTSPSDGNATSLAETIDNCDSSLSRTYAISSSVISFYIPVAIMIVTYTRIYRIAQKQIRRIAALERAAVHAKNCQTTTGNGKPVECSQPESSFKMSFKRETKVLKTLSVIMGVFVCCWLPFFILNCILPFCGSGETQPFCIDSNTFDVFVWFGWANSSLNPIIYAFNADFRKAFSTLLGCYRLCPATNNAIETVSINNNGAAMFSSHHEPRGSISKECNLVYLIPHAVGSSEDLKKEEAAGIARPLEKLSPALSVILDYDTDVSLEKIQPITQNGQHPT

Structure (SMILES): CC(C)[C@]1(C)CC(=O)N(Cc2cccc(C(=O)N[C@H](C)c3ccccc3)c2)C(=N)N1
Ki (Renin): 86 nM | AUC(0-t) at 6 h [1]: 0.173 µM·h

Structure (SMILES): CC(C)[C@]1(C)CC(=O)N(Cc2cccc(N3C[C@H](c4ccccc4)CC3=O)c2)C(=N)N1
Ki (Renin): 420 nM

Structure (SMILES): CC(C)[C@]1(C)CC(=O)N(Cc2cccc(N3CC(c4cccc(Cl)c4)CC3=O)c2)C(=N)N1 (stereo partly drawn)
inhibition at 10 µM (hERG (KCNH2)): 92% | Ki (Renin): 2 nM

Structure (SMILES): CN[C@H](CNC(=O)N1CCC[C@@H]([C@@H](OCCNC(=O)OC)c2cccc(Cl)c2)C1)C[C@H]1CCCOC1 [VTP-27999]
IC50 (Renin): 0.5 nM

Structure (SMILES): CC(C)[C@]1(C)CC(=O)N(Cc2ccnc(N3CC[C@H](c4ccccc4)C3)c2)C(=N)N1
inhibition at 10 µM (hERG (KCNH2)): 72% | Ki (Renin): 15 nM | AUC(0-t) at 6 h [1]: 0.595 µM·h

Structure (SMILES): CC(C)[C@]1(C)CC(=O)N(Cc2cccc(C(=O)N[C@@H](C)c3ccccc3)c2)C(=N)N1
Ki (Renin): 2.2 nM | AUC(0-t) at 6 h [1]: 0.405 µM·h

Now from value to compound, other results behind:

Ki (Cathepsin D): 19500 nM | Ki (Renin): 82 nM | Ki (Beta-secretase 1): 3820 nM | AUC(0-t) at 6 h [1]: 0.049 µM·h
Structure (SMILES): C[C@@]1(c2ccc3sccc3c2)CC(=O)N(Cc2cccc(C(=O)NCc3ccccc3)c2)C(=N)N1

Ki (Renin): 6 nM | AUC(0-t) at 6 h [1]: 2.44 µM·h
Structure (SMILES): CC(C)[C@]1(C)CC(=O)N(Cc2ccnc(N3C[C@@H](c4ccccc4)CC3=O)c2)C(=N)N1
inhibition at 10 µM (hERG (KCNH2)): 77%

inhibition [2]: 51% | CL (Homo sapiens [3]): 4 µL/min | Ki (Cathepsin E): 1100 nM | Ki (Cathepsin D): 180 nM | INH [4]: > 30 µM | bioavailability [5]: 38% | Ki (Renin): 0.6 nM | inhibition (Homo sapiens [7]): 79% | Ki [8]: > 10000 nM | Ki (Beta-secretase 2): 480 nM | fraction unbound [10]: 0.058 | inhibition [11]: 64% | INH [12]: > 30 µM | Ki (Beta-secretase 1): > 10000 nM | AUC [13]: 1 µM·h | AUC [14]: 3 µM·h | fraction unbound [15]: 0.059 | fraction unbound [17]: 0.059 | bioavailability [19]: 9% | AUC(0-t) at 6 h [1]: 6.52 µM·h
Structure (SMILES): CC(C)[C@]1(C)CC(=O)N(Cc2cc(F)cc(C(=O)N[C@@H](C)c3ccccc3)c2)C(=N)N1
Activity (Rattus norvegicus [6]): Active | Activity (Rattus norvegicus [9]): Active | Activity (Rattus norvegicus [16]): 66 mmHg | IC50 [18]: 9000 nM

CL (Homo sapiens [3]): 3.7 µL/min | Ki (Cathepsin D): 2700 nM | Ki (Renin): 56 nM | Papp [20]: 0.09 ×10⁻⁶ cm/s | Ki (Beta-secretase 1): > 10000 nM | AUC(0-t) at 6 h [1]: 0.031 µM·h
Structure (SMILES): CC(C)[C@]1(C)CC(=O)N(Cc2cccc(C(=O)NCc3ccccc3)c2)C(=N)N1

bioavailability (clinical): 2.5%
Structure (SMILES): COCCCOc1cc(C[C@@H](C[C@H](N)[C@@H](O)C[C@H](C(=O)NCC(C)(C)C(N)=O)C(C)C)C(C)C)ccc1OC
Activity (Rattus norvegicus [16]): 43 mmHg

CL (Homo sapiens [3]): 7.6 µL/min | Ki (Renin): 19 nM | Papp [20]: 6.7 ×10⁻⁶ cm/s | AUC(0-t) at 6 h [1]: 2.25 µM·h
Structure (SMILES): CC(C)[C@]1(C)CC(=O)N(Cc2cc(F)cc(N3C[C@@H](c4ccccc4)CC3=O)c2)C(=N)N1
inhibition at 10 µM (hERG (KCNH2)): 85%

Ki (Renin): 44 nM | Papp [20]: 4.2 ×10⁻⁶ cm/s | AUC(0-t) at 6 h [1]: 2.04 µM·h
Structure (SMILES): CC(C)[C@]1(C)CC(=O)N(Cc2cccc(N3C[C@@H](c4ccccc4)CC3=O)c2)C(=N)N1

Source: ChEMBL document CHEMBL3400110, “Iminopyrimidinones: a novel pharmacophore for the development of orally active renin inhibitors” (Bioorg Med Chem Lett, 2015)
